Experimental data published in patent US10385069B2, “Imidazo[2,1-B]thiazole and 5,6-dihydroimidazo[2,1-B]thiazole derivatives useful as S100-inhibitors” (Active Biotech AB, priority 2015, dated 2019).
pIC50: −log10 of the molar value.

Biological target: T1, interaction between biotinylated human S100A9 and human RAGE-Fc (Homo sapiens, UniProt P06702)
T1 construct: made in house; host or cells: E. coli
T1 sequence (P06702 1-114): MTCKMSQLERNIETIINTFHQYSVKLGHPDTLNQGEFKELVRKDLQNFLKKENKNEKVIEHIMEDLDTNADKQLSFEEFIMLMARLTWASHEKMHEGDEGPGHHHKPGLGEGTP
Assay: AlphaScreen inhibition assay, biot-hS100A9:hRAGE-Fc
Type: binding
Settings: biot-hS100A9 pre-incubated with compound 1 h, assay buffer with CaCl2 and ZnCl2
Source text: Inhibition Assay, Biot-hS100A9:hRAGE-Fc
The AlphaScreen (Amplified Luminescent Proximity Homogeneous Assay) contains two types of beads, Alpha Donor beads and Acceptor beads (PerkinElmer). Upon laser excitation at 680 nm a photosensitizer in the Donor bead converts ambient oxygen to a more excited singlet state. The singlet oxygen molecule diffuses (maximum 200 nm) to react with a thioxene derivative in the Acceptor bead and generates a chemiluminescence reaction. Fluorophores in the Acceptor bead subsequently emit light at 520-620 nm which can be detected in the EnVision® Multilabel plate Reader (PerkinElmer). The beads are light sensitive and all work with the beads is performed under subdued light conditions or using green filters on light sources (Roscolux Chroma Green #389, Rosco).
In the AlphaScreen Inhibition Assay described here, protein A (Staphylococcus aureus) conjugated Acceptor beads are used together with streptavidin coated Donor beads (Perkin Elmer 6760617M). The Acceptor beads are pre-incubated with Fc-tagged recombinant human RAGE (rhRAGE-Fc) allowing binding of the rhRAGE-Fc to protein A on the beads. Biotinylated human S100A9 (biot-hS100A9) is pre-incubated with the low molecular test compounds. The pre-mixes are then added to the wells of a micro-plate and incubated allowing interaction between biot-hS100A9 and rhRAGE-Fc. Subsequent addition of streptavidin coated Donor beads causes binding of the streptavidin to the biotinylated hS100A9. After an additional incubation the signal is measured.
Without inhibitory compounds, the interaction of biot-hS100A9 to rhRAGE-Fc will bring the Acceptor and Donor beads in close proximity thus generating a high signal. With an inhibitor present the complex will not form resulting in a decreased signal. The assay is illustrated in FIG. 1.
Chemicals and Reagents. • AlphaScreen® General IgG (Protein A) Detection Kit, (PerkinElmer 6760617M) • HBS-P buffer (GE Healthcare, BR-1003-68) • HBS-N buffer (GE Healthcare, BR-1003-69) • CaCl2 in HBS-P • ZnCl2 in Milli-Q water • DMSO • Biotinylated hS100A9, (biotinylated via cystein by EZ-link Iodoacetyl-PEG2-Biotin reagent (Pierce no. 21334), in HBS-N • rhRAGE-Fc (R&D Systems, 1145-RG-50), in HBS-P
The AlphaScreen assay method is used for screening of the inhibitory effect of different compound samples at fixed concentrations or for IC50 determination by varying the compound concentrations. Samples of test compounds and references are prepared from solutions in DMSO. Relevant reference inhibitors and DMSO are used as controls for defined inhibition and non-inhibition, respectively in the assay. The percent inhibition in assay for test compounds and references are calculated by comparing their obtained assay signals with the signal values for the control with only DMSO (no compound).
Assay concentration of biotinylated hS100A9 and rhRAGE-Fc are batch dependent, and are determined and defined by separate cross-titration experiments using this AlphaScreen inhibition method to verify the optimal setup regarding signal strength and achievement of a defined inhibition with relevant reference compounds. The Final assay concentrations of Acceptor and Donor beads are 20 μg/mL.
Assay buffer is prepared by adding CaCl2 and ZnCl2 to HBS-P and is used freshly prepared in the experiment.
Biotin-hS100A9 solution for the experiment is prepared by dilution of appropriate amount of stock solution biot-hS100A9 in assay buffer (with CaCl2 and ZnCl2) and incubation in room temperature for 30 minutes.
rhRAGE-Fc solution for the experiment is prepared by dilution appropriate amount of rhRAGE-Fc stock in assay buffer.
Protein A Acceptor beads are diluted in assay buffer and are added to an equal volume of the prepared diluted rhRAGE-Fc solution. The beads are light sensitive. The vial is covered with aluminum foil and incubated at room temperature in the dark until biot-hS100A9+compound incubation is finished (see below). […]

Row | pIC50 | SMILES
1 | 6.14 | O=C(O)Cc1cn2c(n1)sc1c(Cl)c(Cl)ccc12 [Example 19, 2-{9,10-Dichloro-7-thia-2,5-diazatricyclo[6.4.0.0^2,6]dodeca-1(8),3,5,9,11-pentaen-4-yl}acetic acid]
2 | 6.01 | O=C(O)c1cn2c(n1)sc1cc(Cl)c(OC(F)(F)F)cc12 [Example 230, 10-Chloro-11-(trifluoromethoxy)-7-thia-2,5-diazatricyclo[6.4.0.0^2,6]dodeca-1(8),3,5,9,11-pentaene-4-carboxylic acid]
3 | 5.89 | O=C(O)c1cn2c(n1)sc1c(Cl)cccc12 [Example 5, 9-Chloro-7-thia-2,5-diazatricyclo[6.4.0.0^2,6]dodeca-1(8),3,5,9,11-pentaene-4-carboxylic acid]
4 | 6.38 | O=C(NS(=O)(=O)C(F)(F)F)c1cn2c(n1)sc1c(Cl)c(Cl)ccc12 [Example 26, 9,10-Dichloro-N-trifluoromethanesulfonyl-7-thia-2,5-diazatricyclo[6.4.0.0^2,6]dodeca-1(8),3,5,9,11-pentaene-4-carboxamide]
5 | 5.67 | O=C(O)c1cn2c(n1)sc1cc(C(F)(F)F)ccc12 [Example 14, 10-(Trifluoromethyl)-7-thia-2,5-diazatricyclo[6.4.0.0^2,6]dodeca-1(8),3,5,9,11-pentaene-4-carboxylic acid]
6 | 6.60 | O=C(O)c1cn2c(n1)sc1c(Cl)c(F)ccc12 [Example 2, 9-Chloro-10-fluoro-7-thia-2,5-diazatricyclo[6.4.0.0^2,6]dodeca-1(8),3,5,9,11-pentaene-4-carboxylic acid]
7 | 5.99 | O=C(O)c1cn2c(n1)sc1c(F)c(F)ccc12 [Example 209, 9,10-Difluoro-7-thia-2,5-diazatricyclo[6.4.0.0^2,6]dodeca-1(8),3,5,9,11-pentaene-4-carboxylic acid]
8 | 6.47 | CCS(=O)(=O)NC(=O)c1cn2c(n1)sc1c(Cl)c(Cl)ccc12 [Example 24, 9,10-Dichloro-N-(ethanesulfonyl)-7-thia-2,5-diazatricyclo[6.4.0.0^2,6]dodeca-1(8),3,5,9,11-pentaene-4-carboxamide]

Further lines, the compound ahead of its results:

Row | SMILES | pIC50
9 | CC1(C)CCCc2c1sc1nc(C(=O)O)cn21 [Example 43, 9,9-Dimethyl-7-thia-2,5-diazatricyclo[6.4.0.0^2,6]dodeca-1(8),3,5-triene-4-carboxylic acid] | 5.91
10 | O=C(O)c1cn2c3c(sc2n1)CC(c1ccccc1)CC3 (centres unmarked) [Example 34, 10-Phenyl-7-thia-2,5-diazatricyclo[6.4.0.0^2,6]dodeca-1(8),3,5-triene-4-carboxylic acid] | 5.82
11 | CC(C)(C)C1CCc2c(sc3nc(C(=O)O)c(NS(C)(=O)=O)n23)C1 (centres unmarked) [Example 196, 10-tert-Butyl-3-methanesulfonamido-7-thia-2,5-diazatricyclo[6.4.0.0^2,6]dodeca-1(8),3,5-triene-4-carboxylic acid] | 6.31
12 | CC1(C)Cc2c(sc3nc(C(=O)O)c(C4CN(C(=O)OC(C)(C)C)C4)n23)C(C)(C)C1 [Example 225, 3-{1-[(tert-Butoxy)carbonyl]azetidin-3-yl}-9,9,11,11-tetramethyl-7-thia-2,5-diazatricyclo[6.4.0.0^2,6]dodeca-1(8),3,5-triene-4-carboxylic acid] | 6.51
13 | CC(C)(C)C1CCc2c(sc3nc(C(=O)O)c(CN4CCCCC4=O)n23)C1 (centres unmarked) [Example 244, 10-tert-Butyl-3-[(2-oxopiperidin-1-yl)methyl]-7-thia-2,5-diazatricyclo[6.4.0.0^2,6]dodeca-1(8),3,5-triene-4-carboxylic acid] | 5.95
14 | CC(=O)N1CCN(c2c(C(=O)O)nc3sc4c(n23)CC(C)(C)CC4(C)C)CC1 [Example 284, 3-(4-Acetylpiperazin-1-yl)-9,9,11,11-tetramethyl-7-thia-2,5-diazatricyclo[6.4.0.0^2,6]dodeca-1(8),3,5-triene-4-carboxylic acid] | 6.15
15 | O=C(O)c1nc2sc3c(Cl)c(F)ccc3n2c1NCCN1CCCC1 [Example 277, 9-Chloro-10-fluoro-3-{[2-(pyrrolidin-1-yl)ethyl]amino}-7-thia-2,5-diazatricyclo[6.4.0.0^2,6]dodeca-1(8),3,5,9,11-pentaene-4-carboxylic acid] | 5.98
16 | COC(=O)CCS(=O)(=O)NC(=O)c1cn2c(n1)sc1c(Cl)c(Cl)ccc12 [Example 27, Methyl 3-[({9,10-dichloro-7-thia-2,5-diazatricyclo[6.4.0.0^2 6]dodeca-1(8),3,5,9,11-pentaen-4-yl}formamido)sulfonyl]propanoate] | 7.15
17 | CC1(C)Cc2c(sc3nc(C(=O)O)c(N4CCOCC4)n23)C(C)(C)C1 [Example 233, 9,9,11,11-Tetramethyl-3-(morpholin-4-yl)-7-thia-2,5-diazatricyclo[6.4.0.0^2,6]dodeca-1(8),3,5-triene-4-carboxylic acid] | 6.37
18 | O=C(O)c1cn2c(n1)sc1c(Cl)c(Cl)cc(OCCN3CCOCC3)c12 [Example 241, 9,10-Dichloro-12-[2-(morpholin-4-yl)ethoxy]-7-thia-2,5-diazatricyclo[6.4.0.0^2,6]dodeca-1(8),3,5,9,11-pentaene-4-carboxylic acid] | 6.16
19 | CC1(C)Cc2c(sc3nc(C(=O)O)c(I)n23)C(C)(C)C1 [Example 199, 3-Iodo-9,9,11,11-tetramethyl-7-thia-2,5-diazatricyclo[6.4.0.0^2,6]dodeca-1(8),3,5-triene-4-carboxylic acid] | 6.28
20 | O=C(NS(=O)(=O)C1CC1)c1cn2c(n1)sc1c(Cl)c(Cl)ccc12 [Example 22, 9,10-Dichloro-N-(cyclopropanesulfonyl)-7-thia-2,5-diazatricyclo[6.4.0.0^2,6]dodeca-1(8),3,5,9,11-pentaene-4-carboxamide] | 6.55
21 | CC1(C(=O)O)CN2C(=N1)Sc1c2ccc(F)c1Cl (centres unmarked) [Example 250, 9-Chloro-10-fluoro-4-methyl-7-thia-2,5-diazatricyclo[6.4.0.0^2,6]dodeca-1(8),5,9,11-tetraene-4-carboxylic acid] | 6.17
22 | CC1(C(=O)NS(C)(=O)=O)CN2C(=N1)Sc1c2ccc(F)c1Cl (centres unmarked) [Example 294, 9-Chloro-10-fluoro-N-methanesulfonyl-4-methyl-7-thia-2,5-diazatricyclo[6.4.0.0^2,6]dodeca-1(8),5,9,11-tetraene-4-carboxamide] | 6.11
23 | CC(C)(C)C1CCc2c(sc3nc(C(=O)O)c(CN4CCOCC4)n23)C1 (centres unmarked) [Example 242, 10-tert-Butyl-3-(morpholin-4-ylmethyl)-7-thia-2,5-diazatricyclo[6.4.0.0^2,6]dodeca-1(8),3,5-triene-4-carboxylic acid] | 5.86
24 | CN1CCN(Cc2c(C(=O)O)nc3sc4c(n23)CCC(C(C)(C)C)C4)CC1 (centres unmarked) [Example 273, 10-tert-Butyl-3-[(4-methylpiperazin-1-yl)methyl]-7-thia-2,5-diazatricyclo[6.4.0.0^2,6]dodeca-1(8),3,5-triene-4-carboxylic acid] | 5.83
25 | CC1(C)Cc2c(sc3nc(C(=O)O)c(Cl)n23)C(C)(C)C1 [Example 207, 3-Chloro-9,9,11,11-tetramethyl-7-thia-2,5-diazatricyclo[6.4.0.0^2,6]dodeca-1(8),3,5-triene-4-carboxylic acid] | 6.11
26 | CN1CCN(c2c(C(=O)O)nc3sc4c(Cl)c(F)ccc4n23)CC1 [Example 276, 9-Chloro-10-fluoro-3-(4-methylpiperazin-1-yl)-7-thia-2,5-diazatricyclo[6.4.0.0^2,6]dodeca-1(8),3,5,9,11-pentaene-4-carboxylic acid] | 6.41
